ChEMBL document CHEMBL3044686, “Synthesis and biological evaluation of some new quinazolin-4(3H)-ones derivatives as anticonvulsants” (Med Chem Res, 2013)
Active and inactive are the calls of the source. The rule behind the calls is not given here.

Experiments:
Mus musculus [1] = species on record: Mus musculus; assay: Anticonvulsant activity in albino CF-1 Mus musculus (mouse) assessed as minimum dose required to protect half or more animals against maximal electroshock-induced seizures measured after 4 hr by electroshock seizure method; type: functional; conditions: albino CF-1, 4 h, read-out: MED
Mus musculus [2] = assay: Toxicity in albino CF-1 Mus musculus (mouse) assessed as motor impairment at 300 mg/kg measured after 0.5 hr by rotarod test; type: organism-based; design: dose 300 mg/kg; conditions: in vivo
Mus musculus [3] = assay: Anticonvulsant activity in albino CF-1 Mus musculus (mouse) assessed as protection against maximal electroshock-induced seizures at 300 mg/kg measured after 0.5 hr by electroshock seizure method; type: functional, organism-based; design: dose 300 mg/kg
Mus musculus [4] = species on record: Mus musculus; assay: Toxicity in albino CF-1 Mus musculus (mouse) assessed as minimum dose required to induce motor impairment in half or more animals measured after 4 hr by rotarod test; type: organism-based; conditions: in vivo
Mus musculus [5] = assay: Toxicity in albino CF-1 Mus musculus (mouse) assessed as motor impairment at 300 mg/kg measured after 4 hr by rotarod test; type: organism-based; design: dose 300 mg/kg; conditions: in vivo
Mus musculus [6] = assay: Induction of CNS depressant activity in albino CF-1 Mus musculus (mouse) assessed as duration of immobility at 100 mg/kg, ip measured after 30 min by Porsolt's force swim pool method (reference value: 52.7 +/-0.70 secs); type: organism-based, Central nervous system; design: dose 100 mg/kg, route intraperitoneal; conditions: in vivo, 0.5 h
Mus musculus [7] = species on record: Mus musculus; assay: Anticonvulsant activity in albino CF-1 Mus musculus (mouse) assessed as minimum dose required to protect half or more animals against maximal electroshock-induced seizures measured after 0.5 hr by electroshock seizure method; type: functional; conditions: albino CF-1, 0.5 h, read-out: MED
Mus musculus [8] = assay: Induction of CNS depressant activity in albino CF-1 Mus musculus (mouse) assessed as increase in immobility at 100 mg/kg, ip measured after 30 min by Porsolt's force swim pool method; type: organism-based, Central nervous system; design: dose 100 mg/kg, route intraperitoneal; conditions: in vivo, 0.5 h
Mus musculus [9] = species on record: Mus musculus; assay: Toxicity in albino CF-1 Mus musculus (mouse) assessed as minimum dose required to induce motor impairment in half or more animals measured after 0.5 hr by rotarod test; type: organism-based; conditions: in vivo

Structure (SMILES)	minimal effective dose (Mus musculus [1])	Activity (Mus musculus [2])	Activity (Mus musculus [3])	MED (Mus musculus [4])	Activity (Mus musculus [5])	Time (Mus musculus [6])	minimal effective dose (Mus musculus [7])	Activity (Mus musculus [8])	MED (Mus musculus [9])
O=c1c2ccccc2nc(-c2ccccc2)n1/N=C/c1cccc(OCc2ccccc2)c1	300 mg/kg	Non-toxic	inactive	300 mg/kg	–	–	–	–	–
O=c1c2ccccc2nc(-c2ccccc2)n1/N=C/c1cccc(O)c1	100 mg/kg	Non-toxic	inactive	–	Non-toxic	–	–	–	–
CCCOc1cccc(/C=N/n2c(-c3ccccc3)nc3ccccc3c2=O)c1	30 mg/kg	Non-toxic	–	–	Non-toxic	80.2 s	100 mg/kg	52.18%	–
CCCCOc1cccc(/C=N/n2c(-c3ccccc3)nc3ccccc3c2=O)c1	100 mg/kg	Non-toxic	–	–	Non-toxic	–	300 mg/kg	–	–
CC(C)Oc1cccc(/C=N/n2c(-c3ccccc3)nc3ccccc3c2=O)c1	300 mg/kg	Non-toxic	–	–	Non-toxic	–	300 mg/kg	–	–
CCOc1cccc(/C=N/n2c(-c3ccccc3)nc3ccccc3c2=O)c1	100 mg/kg	Non-toxic	–	–	Non-toxic	68.3 s	100 mg/kg	29.6%	–
O=C1NC(=O)C(c2ccccc2)(c2ccccc2)N1 [PHENYTOIN]	30 mg/kg	Non-toxic	–	100 mg/kg	–	–	30 mg/kg	–	–
NC(=O)N1c2ccccc2C=Cc2ccccc21 [CARBAMAZEPINE]	30 mg/kg	–	–	100 mg/kg	–	82.4 s	30 mg/kg	56.35%	300 mg/kg
C=CCOc1cccc(/C=N/n2c(-c3ccccc3)nc3ccccc3c2=O)c1	300 mg/kg	Non-toxic	–	–	Non-toxic	–	300 mg/kg	–	–
C=CCCOc1cccc(/C=N/n2c(-c3ccccc3)nc3ccccc3c2=O)c1	100 mg/kg	Non-toxic	–	–	Non-toxic	111.1 s	300 mg/kg	110.81%	–
COc1cccc(/C=N/n2c(-c3ccccc3)nc3ccccc3c2=O)c1	100 mg/kg	Non-toxic	inactive	–	Non-toxic	–	–	–	–
